# Reference: patent US20240287042A1, “NOVEL COMPOUND HAVING INHIBITORY ACTIVITY AGAINST PENDRIN, AND PHARMACEUTICAL USES THEREOF” (UIF (University Industry Foundation), Yonsei University, priority 2021, published 2024)
# Molecular target: T1, human WT ANO1 (Homo sapiens, UniProt Q5XXA6)
# T1 construct: expressed in transfected cells
# T1 sequence (Q5XXA6 1-986): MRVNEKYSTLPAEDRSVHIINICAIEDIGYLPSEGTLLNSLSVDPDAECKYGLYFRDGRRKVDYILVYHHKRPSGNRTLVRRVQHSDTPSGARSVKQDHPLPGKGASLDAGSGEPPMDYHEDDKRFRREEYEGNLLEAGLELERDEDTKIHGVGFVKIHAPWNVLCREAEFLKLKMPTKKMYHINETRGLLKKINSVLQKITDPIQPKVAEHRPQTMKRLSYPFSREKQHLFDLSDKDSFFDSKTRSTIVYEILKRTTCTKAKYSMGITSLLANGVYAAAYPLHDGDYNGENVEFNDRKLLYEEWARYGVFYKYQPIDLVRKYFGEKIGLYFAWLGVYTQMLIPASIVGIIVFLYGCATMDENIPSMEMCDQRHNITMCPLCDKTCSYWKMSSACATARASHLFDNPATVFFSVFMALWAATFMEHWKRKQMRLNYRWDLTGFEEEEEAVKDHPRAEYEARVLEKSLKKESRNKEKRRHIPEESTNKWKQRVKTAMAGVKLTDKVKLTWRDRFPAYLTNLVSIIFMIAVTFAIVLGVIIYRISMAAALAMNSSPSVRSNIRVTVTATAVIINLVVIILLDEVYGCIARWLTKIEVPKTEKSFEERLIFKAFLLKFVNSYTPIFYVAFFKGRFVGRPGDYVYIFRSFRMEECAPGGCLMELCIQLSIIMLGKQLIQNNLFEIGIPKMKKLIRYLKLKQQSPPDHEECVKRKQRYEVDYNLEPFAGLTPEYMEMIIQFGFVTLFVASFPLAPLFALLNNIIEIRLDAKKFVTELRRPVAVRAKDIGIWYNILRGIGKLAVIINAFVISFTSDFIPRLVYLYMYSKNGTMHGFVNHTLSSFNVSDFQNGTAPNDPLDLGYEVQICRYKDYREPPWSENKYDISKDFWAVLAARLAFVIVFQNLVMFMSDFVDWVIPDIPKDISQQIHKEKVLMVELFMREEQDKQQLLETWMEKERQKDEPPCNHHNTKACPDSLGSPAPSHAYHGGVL
# Assay: ANO1 I− transport activity, YFP fluorescence in FRT cells, ATP-activated
# Format: cell-based
# Experimental: Chinese hamster ovary (CHO)-K1 cells or LN-215 cells were cultured in DMEM medium containing 10% fetal bovine serum (FBS), 100 units/ml of penicillin and 100 μg/ml streptomycin. CHO-K1 cells or LN-215 cells were stably transfected with pcDNA3.1 encoding the halide sensor YFP-H148Q/I152L/F46L and human wild-type (WT)-SLC26A9. Fisher rat thyroid (FRT) cells stably transfected with YFP-H148Q/I152L/F46L and human wild type (WT)-CFTR or human wild type (WT)-ANO1 were cultured in DMEM/F-12 medium containing 10% fetal bovine serum (FBS), 100 units/ml of penicillin, and 100 μg/ml of streptomycin.
# LN-215 cells expressing human WT SLC26A9 and YFP-F46L/H148Q/I152L, and FRT cells expressing human WT CFTR or ANO1 and YFP-F46L/H148Q/I152L were plated in 96-well microplates at a density of 2×10^4 cells per well, and cultured for 48 hours. […] After culturing at 37° C. for 10 minutes, the 96-well plate was located on the FLUOstar Omega Microplate Reader (BMG Labtech, Ortenberg, Germany) for a fluorescence assay. For assay of the activity of […], fluorescence was recorded continuously (400 ms per point) for 1 second (baseline), whereby each well was assayed individually for SLC26A9-mediated I-influx. Then, 50 μL of NaI-substituted HEPES buffered solution (replacing NaCl with NaI) was added using a liquid injector at 1 second, and YFP fluorescence was recorded for 6 seconds. […]
SMILES,Effect on ANO1 activity (30 μM),inhibition at 30 µM (FIG. 3)
"Cc1ccc2[nH]c(C(=O)O)c(CC(=O)N3CCN(c4c(C)cccc4Cl)CC3)c2c1 [YPI-A4948, 3-(2-(4-(2-Chloro-6-methylphenyl)piperazin-1-yl)-2-oxoethyl)-5-methyl-1H-indole-2-carboxylic acid]",weakly inhibited,–
"Cc1ccc(C)c(N2CCN(C(=O)Cc3c(C(=O)O)[nH]c4ccc(Cl)cc34)CC2)c1 [YPI-H05, 5-chloro-3-(2-(4-(2,5-dimethylphenyl)piperazin-1-yl-)-2-oxoethyl)-1H-indole-2-carboxylic acid]",–,~80%
